Reference: US20060281719A1, “Oestrogen-17-sulphamates as inhibitors of steroid sulphatase” (priority 2000, published 2006)
Values joined by “and” are separate entries in the source; they are usually repeats but may differ in a detail not shown here. Identical values can stand only once.

Experiments:
Plate assay % inhibition = assay type: cell-based; settings: -ve % means stimulation
[1] = biological target: T1, oestrone sulphatase (E1-STS) (Homo sapiens, UniProt P08842); test: Inhibition of steroid sulphatase activity in placental microsomes; assay type: biochemical; set-up: from tissue; host or cells: human term placenta (microsomal preparation)
T1 sequence (P08842 22-583): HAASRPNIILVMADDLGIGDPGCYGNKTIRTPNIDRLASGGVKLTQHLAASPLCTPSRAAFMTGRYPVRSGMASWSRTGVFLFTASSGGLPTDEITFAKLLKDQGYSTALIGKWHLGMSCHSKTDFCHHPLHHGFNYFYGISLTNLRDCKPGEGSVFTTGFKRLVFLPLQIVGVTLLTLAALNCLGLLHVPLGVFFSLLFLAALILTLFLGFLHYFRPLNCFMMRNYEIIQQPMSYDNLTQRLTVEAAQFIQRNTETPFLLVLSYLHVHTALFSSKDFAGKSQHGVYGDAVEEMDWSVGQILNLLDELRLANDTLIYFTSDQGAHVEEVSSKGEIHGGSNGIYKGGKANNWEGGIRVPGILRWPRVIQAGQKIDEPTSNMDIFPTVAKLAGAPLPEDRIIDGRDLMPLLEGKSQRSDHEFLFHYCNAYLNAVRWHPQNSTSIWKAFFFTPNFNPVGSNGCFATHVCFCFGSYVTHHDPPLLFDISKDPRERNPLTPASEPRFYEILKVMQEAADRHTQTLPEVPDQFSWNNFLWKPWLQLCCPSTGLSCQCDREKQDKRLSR
Description: Inhibition of Steroid Sulphatase Activity in Placental Microsomes
Sulphatase-positive human placenta from normal term pregnancies are thoroughly minced with scissors and washed once with cold phosphate buffer (pH 7.4, 50 mM) then re-suspended in cold phosphate buffer (5 ml/g tissue). Homogenisation is accomplished with an Ultra-Turrax homogeniser, using three 10 second bursts separated by 2 minute cooling periods in ice. Nuclei and cell debris are removed by centrifuging (4° C.) at 2000 g for 30 minutes and portions (2 ml) of the supernatant are stored at 20° C.
Incubations (1 ml) are carried out using a protein concentration of 100 mg/ml, substrate concentration of 20 mM [6,7-3H]oestrone-3-sulphate (specific activity 60 Ci/mmol from New England Nuclear, Boston, Mass., U.S.A.) and an incubation time of 20 minutes at 37° C. If necessary eight concentrations of compounds are employed: 0 (i.e. control); 0.05 mM; 0.1 mM; 0.2 mM; 0.4 mM; 0.6 mM; 0.8 mM; 1.0 mM. After incubation each sample is cooled and the medium (1 ml) was pipetted into separate tubes containing [14C]oestrone (7×10^3 dpm) (specific activity 97 Ci/mmol from Amersham International Radiochemical Centre, Amersham, U.K.). The mixture is shaken thoroughly for 30 seconds with toluene (5 ml). […] A portion (2 ml) of the organic phase was removed, evaporated and the 3H and 14C content of the residue determined by scintillation spectrometry. The mass of oestrone-3-sulphate hydrolysed is calculated from the 3H counts obtained (corrected for the volumes of the medium and organic phase used, and for recovery of [14C]oestrone added) and the specific activity of the substrate.

[2] = biological target: T1, oestrone sulphatase (E1-STS); test: Inhibition of steroid sulphatase (E1-STS) activity in intact MCF-7 breast cancer cells; assay type: cell-based

| SMILES | Plate assay % inhibition (Plate assay % inhibition; 1 μM) [%] | Plate assay % inhibition (Plate assay % inhibition; 0.1 μM) [%] | Plate assay % inhibition (Plate assay % inhibition; 10 μM) [%] | % Inhibition of E1-STS activity in placental microsomes ([1]; 10 μM) | % Inhibition of E1-STS activity in placental microsomes ([1]; 25 µM) [%] | % Inhibition of E1-STS activity in placental microsomes ([1]; 50 µM) [%] | % Inhibition of E1-STS activity in placental microsomes ([1]; 100 µM) [%] | % Inhibition of E1-STS activity in MCF-7 cells ([2]; 0.1 μM) | % Inhibition of E1-STS activity in MCF-7 cells ([2]; 1 μM) [%] | % Inhibition of E1-STS activity in MCF-7 cells ([2]; 10 μM) [%] |
| --- | --- | --- | --- | --- | --- | --- | --- | --- | --- | --- |
| CCCCCN(CCCCC)S(=O)(=O)O[C@@H]1CC[C@H]2[C@@H]3CCc4cc(O)ccc4[C@H]3CC[C@]12C [BLE00082, 3-Hydroxyestra-1,3,5(10)-trien-17α-O—(N,N-dipentyl)sulfamate] | 24 | – | – | – | – | – | – | – | – | – |
| CCCCCN(CCCCC)S(=O)(=O)O[C@@H]1CC[C@H]2[C@@H]3CCc4cc(OS(N)(=O)=O)ccc4[C@H]3CC[C@]12C [BLE00083B, 3-O-Sulfamoyl-estra-1,3,5(10)-trien-17α-O—(N,N-dipentyl)sulfamate] | – | 8 | 24 | – | – | – | – | – | – | – |
| C[C@]12CC[C@@H]3c4ccc(OS(N)(=O)=O)cc4CC[C@H]3[C@@H]1CC[C@@H]2O [BLE00084] | – | 4 | 23 | – | – | – | – | – | – | – |
| NS(=O)(=O)Oc1ccc(C(=O)c2ccc(O)cc2)cc1 [Compound 5, 4′-Hydroxybenzophenone-4-O-sulphamate] | – | – | – | 62.1 ± 1.4% | 82.0 ± 0.4 | 88.1 ± 0.3 | 92.8 ± 0.2 | 34.8 ± 1.7% | 83.8 ± 0.5 | 96.7 ± 1.0 |
| NS(=O)(=O)Oc1ccc(C(=O)c2ccccc2)cc1 [Compound 6, Benzophenone-4-O-sulphamate] | – | – | – | 76.73 ± 2.47% | – | 88.04 ± 0.82 | 92.28 ± 0.41 | <10% | 33.04 ± 10.68 | 87.89 ± 2.02 |
| NS(=O)(=O)Oc1ccc(C=CC(=O)c2ccccc2)cc1 [Compound 7, Chalcone-4-O-sulphamate] | – | – | – | 47.41 ± 0.05% | – | 75.11 ± 1.37 | 82.77 ± 0.23 | <10% | 24.34 ± 11.89 | 83.81 ± 0.17 |
| NS(=O)(=O)Oc1ccc(C(=O)C=Cc2ccccc2)cc1 [Compound 8, Chalcone-4′-O-sulphamate] | – | – | – | 71.27 ± 2.42% | – | 75.79 ± 2.06 | 80.51 ± 1.87 | <10% | 33.04 ± 10.68 | 87.89 ± 2.02 |
| NS(=O)(=O)Oc1ccc2oc3ccccc3c2c1 [Compound 9, Dibenzofuran-2-O-sulphamate] | – | – | – | 28.8 ± 3.2% | 48.5 ± 0.5 | 62.0 ± 2.8 | 75.8 ± 1.2 | 21.3 ± 1.5% | 67.9 ± 1.9 | 97.1 ± 0.8 |
| NS(=O)(=O)Oc1ccc2c(c1)C(=O)c1ccc(OS(N)(=O)=O)cc1C2=O [Compound 10, Anthraquinone-2,6-O,O-bis-sulphamate] | – | – | – | – | 95.7 ± 0.5 | 97.2 ± 0.3 | 97.7 ± 0.1 | 93% and 93.1 ± 2.1% | 98.6 ± 1.0 | 99.1 ± 0.1 |
| NS(=O)(=O)Oc1ccc2c(c1)C(=O)c1ccc(O)cc1C2=O [Compound 11, 2-hydroxyanthraquinone-6-O-sulphamate] | – | – | – | 86% and 86.1 ± 0.5% | 91.2 ± 0.2 | 94.4 ± 0.5 | 95.6 ± 0.1 | 99.3 ± 0.6% | 94.5 ± 1.6 | 90.1 ± 0.8 |
